Measurements published in ChEMBL document CHEMBL1151696 (Bioorg Med Chem, 2008).
Activity calls are given as the source filed them. The rule behind the calls is not given here.

test system: Vaccinia virus; format: functional, organism-based; conditions: Orthopoxvirus vaccinia

SMILES	Activity
CNC12CC3(C)CC1CC3(C)C2	inactive
COc1ccccc1CNC12CC3CC(CC1C3)C2	inactive
c1csc(CNC23CC4CC(CC2C4)C3)c1	inactive
NCC12CC3CC(CC1C3)C2	inactive
CNCC12CC3(C)CC1CC3(C)C2	inactive
CC12CC3CC1(C)CC3(CNC(=N)N)C2	inactive
CN(C)C12CC3CC(CC1C3)C2	inactive
CN(Cc1ccccc1)CC12CC3(C)CC1CC3(C)C2	inactive
N=C(N)NCC12CC3CC(CC1C3)C2	inactive
c1ccc(CNC23CC4CC(CC2C4)C3)cc1	inactive
CC12CC3CC1(C)CC3(CN1CCCCC1)C2	inactive
CN(Cc1ccccc1)CC12CC3CC(CC1C3)C2	inactive
C1CCN(C23CC4CC(CC2C4)C3)CC1	inactive
CC12CC3CC1(C)CC3(N)C2	inactive
CC12CC3CC1(C)CC3(CNCc1ccccc1)C2	inactive
CN(Cc1ccccc1)C12CC3(C)CC1CC3(C)C2	inactive

SMILES	Activity
CN(C)CC12CC3CC(CC1C3)C2	inactive
Fc1ccc(CNC23CC4CC(CC2C4)C3)cc1	inactive
CN(C)CC12CC3(C)CC1CC3(C)C2	inactive
CC12CC3CC1(C)CC3(N(Cc1ccccc1)Cc1ccccc1)C2	inactive
CN(C)C12CC3(C)CC1CC3(C)C2	inactive
c1ccc(CNCC23CC4CC(CC2C4)C3)cc1	inactive
CC(N)C12CC3(C)CC1CC3(C)C2 (stereo unspecified)	inactive
COc1cccc(CNC23CC4CC(CC2C4)C3)c1	inactive
CC12CC3CC1(C)CC3(CN)C2	inactive
CN(Cc1ccccc1)C12CC3CC(CC1C3)C2	inactive
CC12CC3CC1(C)CC3(NCc1cccs1)C2	inactive
CNC12CC3CC(CC1C3)C2	inactive
CC12CC3CC1(C)CC3(NCc1ccccc1)C2	inactive
COc1ccc(CNC23CC4CC(CC2C4)C3)cc1	inactive
CNCC12CC3CC(CC1C3)C2	inactive
